Consider 1 molecule from PMC10804407, “Rombocin, a Short Stable Natural Nisin Variant, Displays Selective Antimicrobial Activity against Listeria monocytogenes and Employs a Dual Mode of Action to Kill Target Bacterial Strains” (ACS Synthetic Biology, 2024).

The structures appear in SMILES notation. ≈ marks a conversion by molar mass, not a printed value.

In one series the test system is L. monocytogenes LK132. It counts as cell-based, Listeria monocytogenes. Conditions: LK132. How it is done:
(§1) Each experiment was performed in triplicate.

For series [1], the system named is L. monocytogenes LMG10470. It counts as cell-based, Listeria monocytogenes. The settings on record: LMG10470. As for the experimental part: as §1
A further series relates to L. monocytogenes TT82E. It counts as cell-based, Listeria monocytogenes. The settings on record: TT82E. As for the experimental part:
as §1

The subject of a further series is Bacillus cereus CH-85. It counts as cell-based. The settings on record: CH-85. How it is done: as §1
In the next series the test system is S. aureus LMG10147. It counts as cell-based, Staphylococcus aureus. The settings on record: LMG10147. How it is done: as §1
For series [2], the system named is S. aureus LMG15975 (MRSA). It counts as cell-based, Staphylococcus aureus. The settings on record: LMG15975. As for the experimental part: as §1
Another series has as its system E. faecium LMG11423. It counts as cell-based, Enterococcus faecium. Conditions: LMG11423. As for the experimental part:
as §1

The test system of series [3] is E. faecium LMG16003 (VRE). It counts as cell-based, Enterococcus faecium. Conditions: LMG16003. How it is done: as §1
Series [4] in a line: Spot-on-lawn assay, peptide-lipid II complex formation. It counts as binding, Lactococcus lactis. Conditions: L. lactis MG1363, purified lipid II 300 μM, 2 μL at edge of halo, overnight 30 °C. As for the experimental part:
(§2) To evaluate the binding of peptide and lipid II or lipoteichoic acid (LTA), an overnight cultured L. lactis MG1363 was added to 0.8% GM17 (w/v, temperature 45 °C) at a final concentration of 0.1% (v/v), and then, the mixture was poured onto 10 mL plates. The binding of peptide and lipid II or LTA was further evaluated by spotting of purified lipid II (300 μM, 2 μL) or LTA (1 mg/mL, 2 μL) to the edge of the inhibition halo of antibiotics. Briefly, antimicrobials were loaded to the agar plate. After the antimicrobial solution drops had dried, lipid II or LTA was spotted to the edge of inhibition halo of antimicrobials. The plates were then incubated overnight at 30 °C after the drops had dried.

Series [5] in a line: Spot-on-lawn assay, peptide-LTA complex formation. It counts as binding, Lactococcus lactis. Conditions: spot-on-lawn (LTA 1 mg/mL, 2 μL) and growth curves, L. lactis MG1363. As for the experimental part:
as §2

Series [6] is described as follows: Growth curve-based lipid II/LTA binding assay. It counts as cell-based, Lactococcus lactis. The settings on record: L. lactis MG1363, 5 × MIC peptide, 2 µl lipid II, 6 hours, three replicates. How it is done: Screening the antibacterial activity of peptides by spot-on-lawn assay
To prepare the plates, an overnight culture of the strains was added to 0.8% LB agar or GM17agar (wt/vol) at 45 ℃ and mixed to a final concentration of 0.1% (vol/vol) before being poured onto the plates (10 ml each). Next, 5 µl of the precursor peptide and 1 µl of 1 mg/mL NisP were dropped onto the plates and left to dry before incubation. The plates were then incubated overnight at 37°C, except for L. lactis, which was incubated at 30°C.
Evaluation of (methyl)lanthionine formation
16 μL of phosphate-buffered saline (pH 7.4) was added to the samples followed by treatment with 2 μL of 5 mg/mL tris[2-carboxyethyl]phosphine for 30 min at room temperature. Next, 4.5 μL of 25 mg/mL N-ethylmaleimide was added to the samples, which were then incubated at room temperature for 2 h.
Subsequently, the samples were desalted using a C18 ZipTip (Millipore) according to the manufacturer’s instructions and subjected to MALDI-TOF MS analysis.
Growth curve and lipid II/LTA binding assay
Overnight cultures of L. lactis MG1363 were diluted to an OD 600 of 0.05 and added to a 96-well plate, which was incubated at 30°C. […] The growth curve was recorded over the following 6 hours using a microplate spectrophotometer under the same conditions, with three replicates used for each treatment.

A further series deals with L. lactis. As to the kind of experiment: Fluorescence microscopy assay of membrane integrity (SYTO 9 / propidium iodide). It counts as cell-based, Lactococcus lactis. The settings on record: 5× MIC, 15 min / 20 min (method), room temperature. How it is done: L. lactis was cultured until it reached an OD600 of 0.8 and then pelleted at 8000g for 5 min and washed three times in 0.7% NaCl. The cell density was normalized to an OD600 of 0.4 in 0.7% NaCl, and a concentration of 5-fold MIC value of each tested antibiotic was added to the cell suspension simultaneously with SYTO 9 and propidium iodide using the LIVE/DEAD Baclight Bacterial Viability Kit (Invitrogen). After incubation at room temperature for 20 min, the compounds were removed by washing the cells with 0.7% NaCl. Finally, the cell suspensions were loaded onto 1.5% agarose pads and analyzed with a DeltaVision Elite microscope (Applied Precision).

Series [7] can be described thus: pH stability by residual antimicrobial activity. Conditions: residual antimicrobial activity vs L. lactis 1363, agar well, triplicate. It counts as physicochemical. How it is done:
To investigate the impact of proteolytic enzymes, pH, and temperature on the antimicrobial activity, a representative strain of L. lactis 1363 was utilized. For the proteolytic enzyme assay, 40 μL of peptide (1 mg/mL) was incubated with or without final concentrations of 1 mg/mL proteolytic enzymes at room temperature for 3 h, followed by an activity test in the agar well. To determine pH stability, the pH was adjusted to 2, 4, 7, and 10 using 1 M HCl or NaOH. The temperature stability was assessed by incubating the peptide at 22, 50, 70, and 90 °C for a specified duration. All experiments were performed in triplicate.
Overnight cultures of the test strains were inoculated at a final concentration of 0.1% (v/v) into melted LB agar at 45 °C and then poured onto plates. After solidification, 8 mm wells were created and filled with 40 μL of the lantibiotic solution (1 mg/mL). The lantibiotics were activated by adding 5 μL of NisP directly to the well. The plates were then incubated overnight at 30 °C, and the zone of inhibition was measured. Zone diameters were calculated by subtracting the area of the well (πr^2) from the area of the zone (πr^2) and reported in millimeters. To determine the peptide concentration, purified and lyophilized peptides were resuspended in 0.05% aqueous acetic acid solution and quantified by HPLC following the protocol described by Schmitt et al.[44] All experiments were performed in triplicate.

In general, MIC refers to the lowest concentration found to suppress growth. Read a high MIC as a need for much substance. Turning to `C=C1NC(=O)[C@H]([C@@H](C)CC)NC(=O)C(NC(=O)C(=CC)NC(=O)[C@@H](N)[C@@H](C)CC)CSC[C@@H](C(=O)NC2C(=O)N[C@@H](C)C(=O)NCC(=O)N[C@H](C(=O)N[C@H](C(=O)NC3C(=O)NCC(=O)N[C@@H](C(C)C)C(=O)N[C@@H]([C@@H](C)CC)C(=O)N[C@@H](CCSC)C(=O)NC(=CC)C(=O)N[C@H](C(=O)N[C@@H](CCSC)C(=O)NC4CSC[C@@H](C(=O)N[C@@H](CCCCN)C(=O)O)NC(=O)CNC(=O)[C@H](CC(N)=O)NC4=O)CSC3C)[C@@H](C)CC)CSC2C)NC(=O)[C@H](CC(C)C)NC1=O` (stereo partly drawn) [rombocin A], the MIC with L. monocytogenes LK132 was 25 mg/L (≈ 10.5 µM); in [1], 25 mg/L (≈ 10.5 µM); with L. monocytogenes TT82E, 12,5 μg/mL; against Bacillus cereus CH-85, 25 mg/L (≈ 10.5 µM); against S. aureus LMG10147, 100 mg/L (≈ 42 µM); in series [2], 100 mg/L (≈ 42 µM). Besides, the MIC (in the series with E. faecium LMG11423; in [3]) was 100 mg/L (≈ 42 µM) each time. Moreover, the “binding to lipid II (effect of spotted lipid II on the inhibition halo)” value in series [4] is on record as “reduction in the antimicrobial activity against L. lactis”. For the same molecule, in [5], the “binding to lipoteichoic acid (LTA)” value is reported as “utilizes electrostatic interactions to interact with the cell walls of target bacteria”. Further, in series [6], the “effect of added lipid II on activity (growth curves)” value is “reduced its activity”. In addition, in the series with L. lactis, the “membrane integrity (SYTO 9 / propidium iodide fluorescence)” value was “membrane disruption similar to nisin”. Besides, the retained activity in series [7] (neutral pH, after 8 h of incubation) is 70%; in series [7] (pH 2 and 4, after 8 h of incubation), “more than 80%”. The reduction in activity result in series [7] (pH 2, 4, 7, and 10 (adjusted with 1 M HCl or NaOH), up to 5.5 h) was “less than 20%”.
